Measurements taken from patent US8119624B2, “Fused phenyl amido heterocyclic compounds” (Pfizer Inc., priority 2006, dated 2012).
pEC50: −log10 of the molar value.

Biological target: T1, Full-length glucokinase (beta cell isoform) (Homo sapiens, UniProt P35557)
T1 construct: Full-length glucokinase (beta cell isoform) was His-tagged at N-terminus; His tag (N); made in house
T1 sequence (P35557 1-465): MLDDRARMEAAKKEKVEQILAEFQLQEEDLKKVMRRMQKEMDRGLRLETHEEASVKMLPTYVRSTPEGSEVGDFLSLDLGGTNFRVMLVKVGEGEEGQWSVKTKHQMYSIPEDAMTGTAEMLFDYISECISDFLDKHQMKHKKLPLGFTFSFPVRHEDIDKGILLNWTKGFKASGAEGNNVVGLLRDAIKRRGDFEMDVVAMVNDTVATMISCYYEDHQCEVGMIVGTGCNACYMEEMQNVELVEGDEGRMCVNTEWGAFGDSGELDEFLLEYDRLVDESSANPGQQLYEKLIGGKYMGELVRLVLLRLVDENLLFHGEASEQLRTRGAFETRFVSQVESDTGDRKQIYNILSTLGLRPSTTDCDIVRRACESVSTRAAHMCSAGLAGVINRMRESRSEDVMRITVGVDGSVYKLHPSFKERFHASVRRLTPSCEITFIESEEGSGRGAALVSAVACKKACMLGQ
Assay: Glucokinase biochemical assay (PK/LDH-coupled, NADH depletion at 340 nm): % activation, EC50, % max activation
Details: 5 mM glucose; for activation at 10 µM: 10 uM compound, % Activation=(Va/Vo−1)×100, read-out: % Activation at 10 uM; for pEC50: GK activation, read-out: EC50; for Emax: fitted maximum activation, read-out: % Max Activation
Outline: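 N-terminally His-tagged full-length human beta-cell glucokinase, room temperature, 5 mM glucose, 1 mM ATP, PK/LDH-coupled with 0.7 mM NADH, 1% DMSO final. Initial velocity from the 200–900 s slope of A340 decline. % activation = (Va/Vo−1)×100, measured across compound concentrations.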

| SMILES | activation at 10 µM [%] | pEC50 | Emax [%] |
| --- | --- | --- | --- |
| Cn1ccc(NC(=O)c2cc(Oc3ccc(S(C)(=O)=O)cc3F)c3c(c2)OC(C)(C)C3)n1 [Example 121, 4-(2-Fluoro-4-methanesulfonyl-phenoxy)-2,2-dimethyl-2,3-dihydro-benzofuran-6-carboxylic acid (1-methyl-1H-pyrazol-3-yl)-amide] | 124 | 6.30 | 152 |
| Cc1ccc(NC(=O)c2cc(Oc3ccc(S(=O)(=O)N4CCC4)cc3)c3c(c2)OC(C)(C)C3)nc1 [Example 124, 4-[4-(Azetidine-1-sulfonyl)-phenoxy]-2,2-dimethyl-2,3-dihydro-benzofuran-6-carboxylic acid (5-methyl-pyridin-2-yl)-amide] | 156 | 7.42 | 113 |
| Cc1ccc(NC(=O)c2cc(Oc3ccc(S(=O)(=O)N(C)C)cc3)c3c(c2)OC(C)(C)C3)nc1 [Example 128, 4-(4-Dimethylsulfamoyl-phenoxy)-2,2-dimethyl-2,3-dihydro-benzofuran-6-carboxylic acid (5-methyl-pyridin-2-yl)-amide] | 135 | 7.42 | 112 |
| Cn1ccc(NC(=O)c2cc(Oc3ccc(S(=O)(=O)C4CC4)cc3)c3c(c2)OC(C)(C)C3)n1 [Example 129, 4-(4-Cyclopropanesulfonyl-phenoxy)-2,2-dimethyl-2,3-dihydro-benzofuran-6-carboxylic acid (1-methyl-1H-pyrazol-3-yl)-amide] | 185 | 7.05 | 160 |

More lines, now with the values ahead:

| activation at 10 µM [%] | pEC50 | Emax [%] | SMILES |
| --- | --- | --- | --- |
| 184 | 7.00 | 159 | CN(C)S(=O)(=O)c1ccc(Oc2cc(C(=O)Nc3ccn(C)n3)cc3c2CC(C)(C)O3)cc1 [Example 122, 4-(4-Dimethylsulfamoyl-phenoxy)-2,2-dimethyl-2,3-dihydro-benzofuran-6-carboxylic acid (1-methyl-1H-pyrazol-3-yl)-amide] |
| 189 | 7.26 | 150 | Cn1ccc(NC(=O)c2cc(Oc3ccc(S(=O)(=O)C4CCC4)cc3)c3c(c2)OC(C)(C)C3)n1 [Example 123, 4-(4-Cyclobutanesulfonyl-phenoxy)-2,2-dimethyl-2,3-dihydro-benzofuran-6-carboxylic acid (1-methyl-1H-pyrazol-3-yl)-amide] |
| 181 | 7.34 | 162 | Cn1ccc(NC(=O)c2cc(Oc3ccc(S(=O)(=O)N4CCC4)cc3)c3c(c2)OC(C)(C)C3)n1 [Example 125, 4-[4-(Azetidine-1-sulfonyl)-phenoxy]-2,2-dimethyl-2,3-dihydro-benzofuran-6-carboxylic acid (1-methyl-1H-pyrazol-3-yl)-amide] |
| 137 | 7.43 | 118 | CCS(=O)(=O)c1ccc(Oc2cc(C(=O)Nc3ccc(C)cn3)cc3c2CC(C)(C)O3)cc1 [Example 126, 4-(4-Ethanesulfonyl-phenoxy)-2,2-dimethyl-2,3-dihydro-benzofuran-6-carboxylic acid (5-methyl-pyridin-2-yl)-amide] |
| 193 | 7.18 | 165 | CCS(=O)(=O)c1ccc(Oc2cc(C(=O)Nc3ccn(C)n3)cc3c2CC(C)(C)O3)cc1 [Example 127, 4-(4-Ethanesulfonyl-phenoxy)-2,2-dimethyl-2,3-dihydro-benzofuran-6-carboxylic acid (1-methyl-1H-pyrazol-3-yl)-amide] |
| 211 | 6.85 | 236 | CN(C)S(=O)(=O)c1ccc(Oc2cc(C(=O)Nc3ccn(C)n3)cc3c2CC(C)(C)O3)cc1F [Example 130, 4-(4-Dimethylsulfamoyl-3-fluoro-phenoxy)-2,2-dimethyl-2,3-dihydro-benzofuran-6-carboxylic acid (1-methyl-1H-pyrazol-3-yl)-amide] |
